Assay type in all cases: cell-based
In experiment [1] the test system is Bacteria (aerobic spore-formers). In words: Germ content determination (Ph. Eur. 6.8, Chapter 2.6.12) of aqueous walnut shell meal slurry: bacteria. As to the method:
(§1) Test Equipment: • A BF 720 incubator is used. • A spiral plater is used as a plating device, with which a predefined volume of the suspension to be checked for germs is applied to the culture medium. For example, an Eddy-Jet 2W spiral plater is used.
(§2) The germ count takes place in the screening by the Envirocheck® system for confirmation according to the Ph Eur.6.8. Chapter 2.6.12.
(§3) Subculturing: • The subculturing is carried out by a spiral plater using a corresponding program, depending on the requirements (for example, in one program, higher germ quantities may be more easily broken down by the gradient of the applied product or, in another program, a greater amount may be applied, which drops the lower determination limit). • One (in the case of double samples, two) fungus culture medium and one bacteria culture medium each are taken for each sample. • Standard total germ count checks are performed with no double determination.
(§4) Neutralization: • A neutralization, if it is to be carried out, takes place using 50% NaOH.
(§5) Incubation: • Bacteria: 2-3 days at 30+/−2° C. in the corresponding incubators; • Yeast/fungus: 3-5 days at room temperature away from light.
(§6) . This amount was maintained at pH 2.9 in the subsequent tests. Following a predefined time span T in minutes, one sample each was collected and incubated for 48 hours in an incubator in order to subsequently determine its germ load. The time span T thus corresponds to the contact time of the disinfectant, in the present case only citric acid.
(§7) The germ count after incubation takes place using the Environcheck® test sticks immediately or in an outside laboratory. For the external check, the product is cooled and stored for at least 1 day at 8° C. and transferred in a polystyrene box.
(§8) The germ content determination is based on the Ph. Eur.6.8—germ content, Chapter 2.6.12
(§9) […]. The sample was then again adjusted to pH 7 using sodium hydroxide solution and incubated in the incubator for 48 hours. The germs in the individual samples were subsequently counted again using the Envirocheck® system internally or using an outside institute by a previously cooled stored product for 1 day.
(§10) . The germ count determination is based on the Ph. Eur. 6.8—Germ content, Chapter 2.6.12

The subject of experiment [2] is total germ count of walnut shell meal slurry. Nature of the experiment: Germ content determination (Ph. Eur. 6.8, Chapter 2.6.12) of aqueous walnut shell meal slurry: total germ count. As to the method:
as §1, §2, §4, §5
Following a predefined time span T in minutes, one sample each was collected and incubated for 48 hours in an incubator in order to subsequently determine its germ load.
as §7, §8
The subsequent incubation of the sample took place over 48 hours.
The sample was then again adjusted to pH 7 using sodium hydroxide solution and incubated in the incubator for 48 hours. The germs in the individual samples were subsequently counted again using the Envirocheck® system internally or using an outside institute by a previously cooled stored product for 1 day.
The germ count determination is based on the Ph. Eur. 6.8—Germ content, Chapter 2.6.12

Another experiment has as its system Fungi. Nature of the experiment: Germ content determination (Ph. Eur. 6.8, Chapter 2.6.12) of aqueous walnut shell meal slurry: fungi. As to the method: as §1, §2, §3, §4, §5, §6, §7, §8, §9, §10
Another experiment relates to Yeasts. In words: Germ content determination (Ph. Eur. 6.8, Chapter 2.6.12) of aqueous walnut shell meal slurry: yeasts. As to the method:
as §1, §2, §3, §4, §5, §6, §7, §8, §9, §10

Setting [3] is: pH 2.9, contact time 15 minutes.
Setting [4] is: pH 2.9, contact time 30 minutes.
The mark [5] stands for this setting: pH 2.9, contact time 45 minutes.
The mark [6] stands for this setting: pH 2.9, contact time 60 minutes.

Consider `O=C(O)CC(O)(CC(=O)O)C(=O)O` [citric acid], for which the Bacteria is recorded as 60 CFU/g or mL in experiment [1] (setting [3]), 100 CFU/g or mL in experiment [1] (setting [4]), 200 CFU/g or mL in experiment [1] (setting [5]) and 170 CFU/g or mL in experiment [1] (setting [6]). In addition, the “TGC (total germ count)” value in experiment [2] (setting [3]) is listed as 250 CFU/g or mL; in experiment [2] (setting [4]) it was 295 CFU/g or mL; in experiment [2] (setting [5]), 235 CFU/g or mL. The Fungi is on record as 50 CFU/g or mL in the experiment with Fungi (setting [3]), 55 CFU/g or mL in the experiment on Fungi (setting [4]), 35 CFU/g or mL in the experiment with Fungi (setting [5]) and 20 CFU/g or mL in the experiment with Fungi (setting [6]). Also, the Yeasts with Yeasts (setting [3]) is on record as 140 CFU/g or mL; with Yeasts (setting [4]), 140 CFU/g or mL; in the experiment on Yeasts (setting [5]), “— (<7 CFU/g or mL)”; with Yeasts (setting [6]), 35 CFU/g or mL.

In the case of `CC(O)C(=O)O` (stereo not shown) [lactic acid], the “contact time after which germ load reduction clearly identifiable” value in experiment [2] (pH 2.9) came to 5 min.

The values are drawn from patent US20240041037A1, “DISINFECTANT AND USE THEREOF” (priority 2021, published 2024).
